Assay results reported in patent US20230060873A1, “COMPOUNDS AND METHODS FOR FORMING ION CHANNELS IN BIOLOGICAL MEMBRANES” (Washington University, priority 2021, published 2023).
Values after ≈ are worked out from the molar mass of the structure shown.

Key:
Bacillus subtilis [1] = experiment: Toxicity (MIC) of MAcBCE and MAkBCE compounds on B. subtilis; type: cell-based; conditions: B. subtilis 168 WT with pRB374, 12 h, up to 400 μM
Description: XL1 blue strain Escherichia coli cells transformed with pET28a plasmid containing a kanamycin resistance gene, were grown at 37° C. in 2 mL of LB medium (Miller's LB broth, Research Products International) supplemented with 50 μg/mL of kanamycin, until the optical density (OD600) reached 0.6. The starting density of bacteria in the remainder of the experiments was a 1/100 dilution of this bacterial density, which was split into 4 mL cultures. A series of 400, 100, 10 and 5 mM stock solutions of each monoacylated benzo(crown-ether) (MAcBCE) and monoalkylated benzo(crown-ether) (MAkBCE) compounds in trifluoroethanol (TFE) were diluted by addition to the 4 mL cultures to reach final concentrations of 400, 200, 100, 50, 20, 15, 10, 5, 4, 3, 2 and 1 μM. The final TFE concentration was never higher than 0.1% v/v. Negative controls in the presence of TFE 0.1% v/v or in the absence of any treatment for each batch gave similar bacterial growth. The cultures were incubated at 37° C. with agitation for 12 h. Bacillus subtilis (168 WT) toxicity tests were carried out using an identical protocol, except they were transformed with the shuttle plasmid pRB374 in the presence of 5 μg/mL of kanamycin. […] Each compound was assayed a minimum of three times at each tested concentration.
The cytotoxicity of MABCE compounds was determined by measuring the MIC in liquid cultures of either the gram-negative bacteria Escherichia coli or the gram-positive bacteria Bacillus subtilis. […] As some curves overlap, portions of them are hidden. Values of MIC of 400 μM indicate that the value was either 400 μM, or it was higher and then was not determined. Each compound was assayed a minimum of three times at each different concentration. MICs for 5-A-4, 5-A-11, 6-A-11 and 6-O-11 could not be determined because the compounds were not soluble in TFE. While E. coli was not susceptible to any of the tested compounds at concentrations as high as 400 μM (data not shown), B. subtilis was susceptible to MABCE compounds bearing 15-crown-5 and 18-crown-6 scaffolds, but not to compounds containing a 12-crown-4 scaffold, as shown in FIG. 1.

B. subtilis membranes = experiment: DiSC3(5) depolarization assay, MAcBCE/MAkBCE; type: cell-based, Bacillus subtilis; conditions: 2 μM compound, 60 mM KCl, NaCl or NMDG-Cl; for change in DiSC3(5) fluorescence (membrane depolarization): 25° C, 10 minutes
Description: A 2 mL liquid culture of transformed B. subtilis cells was grown at 37° C. in LB medium supplemented with 5 μg/mL kanamycin until OD600=0.6 was reached. The cells were collected by centrifugation at 2000 rpm over 3 min. The bacteria were washed twice with an NMDG-MeSO3 solution (100 mM NMDG, 10 mM HEPES, pH adjusted to 7.4 with methane sulfonic acid). […] The working dye solution was a 200 μM solution of DiSC3(5) (3,3′-dipropylthiadicarbocyanine iodide; Tokyo Chemical Industry) in DMSO. A series of 2 M solutions of NMDG-Cl, NaCl and KCl were prepared containing 10 mM HEPES; the pH was adjusted to pH 7.4 with NMDG, NaOH or KOH, respectively, to avoid any pH changes after their addition. The experiment was initiated with 3 mL of NMDG-MeSO3 in a quartz cuvette, then 5 μL of the dye solution was added (timepoint t1, 50 sec) for a 0.3 μM final concentration by the end of experiment. This was followed by the addition of 100 μL of the B. subtilis suspension (timepoint t2, 100 sec). After 150 sec (timepoint t3, 250 sec), the fluorescence stabilized to a minimum intensity and 100 μL of the 2 M NMDG-Cl, NaCl or KCl solution was added to reach ˜60 mM final concentration of the salt. The final step was the addition 0.64 μL of a 10 mM stock solution of the desired MAcBCE or MAkBCE compound in TFE (timepoint t4, 400 sec), for a final concentration of 2 μM. Negative controls were performed by adding the same volume of pure TFE to the cuvette at timepoint t4. Fluorescence intensity was recorded each second using a Horiba Fluoromax 4 spectrometer (λexcitation=640 nm; λemission=670 nm). The solution inside the cuvette was vigorously mixed throughout the experiment by using a magnetic stirrer and the temperature was kept constant at 25° C. For purposes of normalization, the fluorescence intensity was divided by the fluorescence level just before timepoint t2.
To determine whether MAcBCE or MAkBCE compounds catalyse ion-selective flux, a set of highly bioactive members bearing ten-carbon chain lengths were tested for their ability to depolarize B. subtilis membranes using a test based on the fluorescent dye 3,3-dipropylthiadicarbocyanine (DiSC3(5)). This set of compounds were selected as four of the most toxic members of the MAcBCE and MAkBCE compound library (5-O-10, 5-A-10, 6-O-10, and 6-A-10; FIG. 3) belong to this group and all are soluble in TFE. The two non-toxic benzo(12-crown-4) scaffold members (4-O-10 and 4-A-10; FIG. 3) were used as controls.
FIGS. 4 and 5 show the time course of DiSC3(5) fluorescence due to the addition of 2 μM 6-A-10 (FIG. 4) and 6-O-10 (FIG. 5). The average of the final fluorescence values (mean±S.E.M.) of at least three experiments are shown in FIGS. 4 and 5 and are similarly plotted for 4-A-10 (FIG. 6), 5-A-10 (FIG. 7), 6-A-10 (FIG. 8), 4-O-10 (FIG. 9), 5-O-10 (FIG. 10), and 6-O-10 (FIG. 11). Experiments were performed in a NMDG-MeSO3 solution (100 mM NMDG, 10 mM HEPES, pH adjusted to 7.4 with methane sulfonic acid). The events are: t1, addition of dye; t2, addition of B. subtilis; t3, addition of a 2 M NMDG-Cl, 2 M NaCl or a 2 M KCl solution up to a final concentration of 60 mM; t4, addition of each MAcBCE or MAkBCE compound up to 2 μM. Experiments were repeated at least four times per condition and normalized relative to the fluorescence intensity just before the addition of cells.
The potentiometric dye DiSC3(5) was used to measure the ability of MAcBCE and MAkBCE compounds to catalyse ion-selective transport. DiSC3(5) undergoes membrane voltage-dependent partitioning between the intracellular and the extracellular medium. DiSC3(5) accumulates within a cell with a polarized membrane (negatively charged inside the cell) and is released when the cell membrane is depolarized (positively charged inside the cell). The membrane voltage in B. subtilis is roughly −120 mV, leading to DiSC3(5) accumulation in the bacteria (timepoint t2 in FIG. 4A-B). […]

[2] = Solubility in trifluoroethanol (TFE); type: physicochemical; conditions: trifluoroethanol stock solutions
Bacillus subtilis [3] = experiment: Toxicity (MIC) of dialkylated lariat ethers on B. subtilis; type: cell-based; conditions: B. subtilis 168 WT, 12 h, visual turbidity, read-out: minimum inhibitory concentration (MIC)
Description: The cyto-toxicity was determined by measuring the minimum inhibitory concentrations (MIC) for this series of dialkylated lariat ethers in the Gram-negative bacteria Escherichia coli, the Gram-positive bacteria Bacillus subtilis, and human embryonic kidney (HEK293T) cells.
On bacteria. XL1 blue strain Escherichia coli cells transformed with a pET28a plasmid (which contains a kanamycin resistance gene) were grown at 37° C. in 2 mL of LB medium (Miller's LB broth, Research Products International) supplemented with 50 μg/mL of kanamycin until the optical density (600 nm) reached 0.600. The starting density of bacteria in the remainder of the experiments was a 1/100 dilution of this bacterial density, which was split into 4 mL cultures. A series of 400, 100, 10 and 5 mM stock solutions of each dialkylated diaza(18-crown-6) compounds in trifluoroethanol (TFE) were diluted by adding to the 4 mL cultures until final concentrations of 400, 200, 100, 50, 20, 15, 10, 5, 4, 3, 2 and 1 μM were reached, with the final TFE concentration never >0.1% v/v. Negative controls in the presence of TFE 0.1% v/v or the absence of any treatment were done for each batch. The cultures were incubated at 37° C. with agitation for 12 h. Bacillus subtilis (168 WT) toxicity tests were carried out using an identical protocol, except for the addition of the antibiotic. […] Each compound was assayed a minimum of three times at each tested concentration.

[4] = Planar lipid bilayer ion channel recordings; type: biochemical; conditions: 2 μM; bilayer clamped at 100 mV; 150 mM KCl, 10 mM HEPES, pH 7.4
Description: Experiments in planar lipid bilayers were performed via a Nanion Orbit-mini planar bilayer system. The planar membranes were formed by painting a 25 mg/mL solution of lipids in n-nonane over the four 50 μm apertures on the chip. The lipids used were asolectin from soybean (Sigma-Aldrich) or a 3:1 w/w mix of 1-palmitoyl-2-oleoyl-sn-glycero-3-phosphoethanolamine (POPE) and 1-palmitoyl-2-oleoyl-sn-glycero-3-phospho-(1′-rac-glycerol) (POPG) (Avanti Polar lipids). The solutions tested were KCl solution (150 mM KCl, 10 mM HEPES, pH adjusted to 7.4 with KOH), NaCl solution (150 mM NaCl, 10 mM HEPES, pH adjusted to 7.4 with NaOH), and a concentrated KCl solution (500 mM KCl, 10 mM HEPES, pH adjusted to 7.4 with KOH). When the appropriate membrane formed, the voltage was clamped at 100 mV or −100 mV, and a stock solution of gramicidin D (Sigma-Aldrich) in DMSO or LEC10 in TFE were added up to the desired concentration. The tested concentration of gramicidin D was 1 nM and 2, 10, 100 and 200 μM were tested for LEC10. Two different temperatures were tested for each condition: 25 and 37° C. The current was recorded over 10 min for the gramicidin test and up to 1 h for the LEC10 test. The data was analyzed with Clampfit 10.7 software (Axon Instruments).
FIGS. 41 and 42 show the lipid bilayer recordings. Current through the asolectin planar lipid bilayer clamped at 100 mV was recorded in the presence of […] (FIG. 41) and 2 μM LEC10 (FIG. 42). In both cases, the solution was 150 mM KCl, 10 mM HEPES, pH 7.4. […] This lack of unitary channel formation, or even a carrier-like increase of the conductance, precludes an ionophore-like mechanism of ion transport.

Compound	toxicity / susceptibility of B. subtilis (MIC, FIG. 1) (Bacillus subtilis [1])	solubility in TFE [2]	also measured
CCCCCCCCCCc1ccc2c(c1)OCCOCCOCCO2 [Compound 4-A-10, 12-decyl-2,3,5,6,8,9-hexahydrobenzo[b][1,4,7,10]tetraoxacyclododecine]	non-toxic		change in DiSC3(5) fluorescence (membrane depolarization) (B. subtilis membranes): negligible
CCCCCCCCCC(=O)c1ccc2c(c1)OCCOCCOCCO2 [Compound 4-O-10, 1-(2,3,5,6,8,9-hexahydrobenzo[b][1,4,7,10]tetraoxacyclododecin-12-yl)decan-1-one]	non-toxic		change in DiSC3(5) fluorescence (membrane depolarization) (B. subtilis membranes): negligible
CCCCc1ccc2c(c1)OCCOCCOCCOCCO2 [Compound 5-A-4, 15-butyl-2,3,5,6,8,9,11,12-octahydrobenzo[b][1,4,7,10,13]pentaoxacyclopentadecine]		not soluble	
CCCCCCCCCCc1ccc2c(c1)OCCOCCOCCOCCO2 [Compound 5-A-10, 15-decyl-2,3,5,6,8,9,11,12-octahydrobenzo[b][1,4,7,10,13]pentaoxacyclopentadecine]	most toxic		kinetics of the depolarization, ion dependence (B. subtilis membranes): fastest in presence of K^+ followed by Na^+ and then NMDG^+
CCCCCCCCCCCc1ccc2c(c1)OCCOCCOCCOCCO2 [Compound 5-A-11, 15-undecyl-2,3,5,6,8,9,11,12-octahydrobenzo[b][1,4,7,10,13]pentaoxacyclopentadecine]		not soluble	
CCCCCCCCCC(=O)c1ccc2c(c1)OCCOCCOCCOCCO2 [Compound 5-O-10, 1-(2,3,5,6,8,9,11,12-octahydrobenzo[b][1,4,7,10,13]pentaoxacyclopentadecin-15-yl)decan-1-one]	most toxic		kinetics of the depolarization, ion dependence (B. subtilis membranes): fastest in presence of K^+ followed by Na^+ and then NMDG^+
CCCCCCCCCCCc1ccc2c(c1)OCCOCCOCCOCCOCCO2 [Compound 6-A-11, 18-undecyl-2,3,5,6,8,9,11,12,14,15-decahydrobenzo[b][1,4,7,10,13,16]hexaoxacyclooctade-cine]		not soluble	
CCCCCCCCCCC(=O)c1ccc2c(c1)OCCOCCOCCOCCOCCO2 [Compound 6-O-11, 1-(2,3,5,6,8,9,11,12,14,15-decahydrobenzo[b][1,4,7,10,13,16]hexaoxacyclooctadecin-18-yl)undecan-1-one]		not soluble	
CCCCCCCCCCCN1CCOCCOCCN(CCCCCCCCCCC)CCOCCOCC1 [LEC11, Diundecyl diaza(18-crown-6)]			MIC (Bacillus subtilis [3]): 2 µM (≈ 1.14 µg/mL)
CCCCCCCCCCCCN1CCOCCOCCN(CCCCCCCCCCCC)CCOCCOCC1 [LEC12, Didodecyl diaza(18-crown-6)]			MIC (Bacillus subtilis [3]): 2 µM (≈ 1.2 µg/mL)
CCCCCCCCCCCCCN1CCOCCOCCN(CCCCCCCCCCCCC)CCOCCOCC1 [LEC13, Ditridecyl diaza(18-crown-6)]			MIC (Bacillus subtilis [3]): > 400 µM
gramicidin D			ion channel activity [4]: unitary channels
